Measured values taken from patent US20220402862A1 (Intellia Therapeutics, Inc., priority 2019, published 2022).

test: pKa measurement of unformulated amine lipid (fluorescence, method of Jayaraman et al.); assay type: physicochemical; details: 100 μM in 0.1 M phosphate buffer, pH 2.0-12.0
Experimental: The pKa of each amine lipid was determined according to the method in Jayaraman, et al. (Angewandte Chemie, 2012) with the following adaptations. […] Lipid was diluted to 100 μM in 0.1 M phosphate buffer (Boston Bioproducts) where the pH ranged from 2.0-12.0. Fluorescence intensity was measured using excitation and emission wavelengths of 321 nm and 448 nm.

pKa	SMILES
6.06	CCCCC/C=C\C/C=C\CCCCCCCC(=O)OCC(COC(=O)CCC(OCCCCCCCC)OCCCCCCCC)COC(=O)C1(C)CCN(C)C1 (centres unmarked) [Compound 30, 3-((4,4-bis(octyloxy)butanoyl)oxy)-2-((((9Z,12Z)-octadeca-9,12-dienoyl)oxy)methyl)propyl 1,3-dimethylpyrrolidine-3-carboxylate]
6.11	CCCCCCCCCCOC(=O)CCCCCCCC(=O)OCC(COC(=O)CCC(OCCCCCCC)OCCCCCCC)COC(=O)OCCCN(CC)CC (centres unmarked) [Compound 78, 1-(3-((4,4-bis(heptyloxy)butanoyl)oxy)-2-((((3-(diethylamino)propoxy)carbonyl)oxy)methyl)propyl) 9-decyl nonanedioate]
8.4	CCCCC/C=C\C/C=C\CCCCCCCC(=O)OCC(COC(=O)CCC(OCCCCCCCC)OCCCCCCCC)COC(=O)NCCN1CCC(O)CC1 (centres unmarked) [Compound 49, 3-((4,4-bis(octyloxy)butanoyl)oxy)-2-((((2-(4-hydroxypiperidin-1-yl)ethyl)carbamoyl)oxy)methyl)propyl (9Z,12Z)-octadeca-9,12-dienoate]
8.9	CCCCC/C=C\C/C=C\CCCCCCCC(=O)OCC(COC(=O)CCC(OCCCCCCCC)OCCCCCCCC)COC(=O)NCCCN1CCC(O)CC1 (centres unmarked) [Compound 46, 3-((4,4-bis(octyloxy)butanoyl)oxy)-2-((((3-(4-hydroxypiperidin-1-yl)propyl)carbamoyl)oxy)methyl)propyl (9Z,12Z)-octadeca-9,12-dienoate]
6.03	CCCCC/C=C\C/C=C\CCCCCCCC(=O)OCC(COC(=O)CCC(OCCCCCCCC)OCCCCCCCC)COC(=O)N(C)CCN(CC)CC (centres unmarked) [Compound 33, 3-((4,4-bis(octyloxy)butanoyl)oxy)-2-((((2-(diethylamino)ethyl)(methyl)carbamoyl)oxy)methyl)propyl (9Z,12Z)-octadeca-9,12-dienoate]
8.6	CCCCC/C=C\C/C=C\CCCCCCCC(=O)OCC(COC(=O)CCC(OCCCCCCCC)OCCCCCCCC)COC(=O)NCC1CCN(C)C1 (centres unmarked) [Compound 43, 3-((4,4-bis(octyloxy)butanoyl)oxy)-2-(((((1-methylpyrrolidin-3-yl)methyl)carbamoyl)oxy)methyl)propyl (9Z,12Z)-octadeca-9,12-dienoate]
6.65	CCCCCCCCCCOC(=O)CCCCCCCC(=O)OCC(COC(=O)CCCCCC(=O)OC(CCCCCCCC)CCCCCCCC)COC(=O)NCCN(CC)CC (centres unmarked) [Compound 81, 1-decyl 9-(3-(((2-(diethylamino)ethyl)carbamoyl)oxy)-2-(((7-(heptadecan-9-yloxy)-7-oxoheptanoyl)oxy)methyl)propyl) nonanedioate]
5.2	CCCCC/C=C\C/C=C\CCCCCCCC(=O)OCC(COC(=O)CCC(OCCCCCCCC)OCCCCCCCC)COC(=O)OCC1CN(CC)C1 (centres unmarked) [Compound 50, 3-((4,4-bis(octyloxy)butanoyl)oxy)-2-(((((1-ethylazetidin-3-yl)methoxy)carbonyl)oxy)methyl)propyl (9Z,12Z)-octadeca-9,12-dienoate]
